According to patent publication US6710051B1, “Screening method” (Klaus Trier APS, priority 1997, dated 2004):
Marks after values point to notes of the source that are not given here.

Experiments:
sclera [1] = assay: Content of collagen specific amino acids in rabbit sclera after long term treatment (HPLC); type: in vivo; design: Hydroxylysine Decr. compared to the control / Hydroxyproline Inc. compared to the control / Proline Inc. compared to the control: concentration or dose not given beside the values; details: for Hydroxylysine Decr. compared to the control / Hydroxylysine content / Hydroxyproline content / Proline content / Hydroxyproline Inc. compared to the control / Proline Inc. compared to the control: 3 months treatment; for Hydroxylysine content / Hydroxyproline content / Proline content: dried defatted weight
Description: (§1) Test animal: Charles River Deutschland Chinchilla Bastard female rabbits.
(§2) Number of animals: 6 test animals and 6 control animals
(§3) Age: approximately 8 weeks at the commencement of the test.
(§4) Weight: 1.4-1.9 kg at the commencement of the test.
(§5) Cages: The animals live in identical cages made of stainless steel (Scanbur), length 1 m, depth 0.52 m, height 0.5 m.
(§6) Amount of food: Increasing from 75 g per day at the commencement of the test up to 130 g after three months.
(§7) Experimental drinking water 1 contained theophyllin in a dose equivalent of 27 mg increasing to 63 mg (added as theophyllin and ethylendiamin in a dose of 33 to 77 mg) daily.
(§8) Experimental drinking water 2 contained fluoxetine (Fontex, Lilly) in a dose equivalent of 2 mg increasing to 5 mg daily.
(§9) Experimental diet 3 was added 7-methylxanthine 500 mg per kg Stanrab standard diet equivalent of a daily 7-methylxanthine dose of […] per day.
(§10) Experimental diet 4 was added theobromine (3,7-dimethylxanthine) 500 mg per kg Stanrab standard diet equivalent of a daily theobromine dose of […] per day.
(§11) Experimental diet 5 was added acetazolamide 500 mg per kg Stanrab standard diet equivalent of a daily acetazolamide dose of […] per day.
(§12) Collection of sample: Sclera biopsies are taken for analysis for proteoglycane content, distribution between the individual glycosaminoglycanes and the content of collagen specific amino acids. Four tests from each animal: Two samples from the front, 5×10 mm along limbus (without cornea), and two samples from the back, punch 10 mm corresponding to the center of the retina. Furthermore, tests are taken for electron microscopy (EM) from two animals in each group.
Samples for analysis for content of collagen specific amino acids are frozen down immediately. The amino acid content is determined by HPLC-chromatography.
The dried tissue with constant weight is minced into very fine particles with a pair of scissors, approximately 20 per piece of tissue. The small flakes from each original piece of tissue ate divided into two equally sized portions, one of which is employed for hydrolysis and the other one is kept for reference. The constant dry weight of each portion is known.
From each resolubilized hydrolysate 3 aliquots of each 8 microliters and 3 aliquots of 40 μl are taken and transferred to separate polypropylene tubes in which 20 microliters of a solution of internal standard substances citrulline and 2 aminobutyric acid were added where the further method takes place.
The taken aliquots from hydrolysate are dried in a vacuum exsiccator at 35° C. over night and subsequently submitted to derivatization with phenylisothiocyanate.
The resulting phenylisothiocarbamates are transferred to the HPLC instrument for separation and quantification. A new set of calibration curves is established, 1 curve for each of the 19 amino acids, prior to the analysis of the samples from one investigation.
The concentration range of standard samples exceed the ranges of amino acid concentrations in the unknowns. Hydroxyproline and proline are quantitated from the 8 microliter aliquots, and hydroxylysine is quantitated from the 40 microliter aliquots.

sclera [2] = assay: Content of proteoglycanes in rabbit sclera after long term treatment (alcian blue method); type: in vivo; design: Proteoglycanes Decrease compared to the control, anterior sclera / Proteoglycanes Increase compared to the control, anterior sclera / Proteoglycanes Increase compared to the control, posterior sclera / Effect on proteoglycan content of posterior sclera in % compared to control: concentration or dose not given beside the values; details: for Content of proteoglycanes, anterior sclera / Content of proteoglycanes, posterior sclera: wet weight
Procedure: as §1, §2, §3, §4
Lightness/Darkness cycle: 12/12 hours.
as §5
Food: Stanrab standard diet from Special Diet Services, P.O. Box 705, Witham Essex CM8 3AD, UK (further details, see Table A).
as §6, §7, §8
Experimental diet 2 was added 4.5 g L-cystine per kg Stanrab standard diet equivalent of a daily L-cystine dose of 338 mg increasing to 585 mg per day. With respect to the supplement of L-cystine, the normal intake per day of the standard diet is 218 mg increasing to 377 mg L-cystine.
as §9, §10, §11
Experimental diet 6 was added 4.5 g L-ornithine per kg Stanrab standard diet equivalent of a daily L-ornithine dose of 338 mg increasing to 585 mg per day.
as §12
Analyses: Samples for proteoglycane analysis are frozen down immediately. The samples are analyzed by Wieslab AB, IDEON, S-223 70 Lund, Sweden, by means of a method which has been described by Björnsson, S., Analytical Biochemistry 210, 282-291 (1993). The method comprises extraction by 20 microliters of 4 M guanidine-HCl, 50 Mm sodium acetate per mg wet weight over night by room temperatures. The extracts are centrifuged in order to remove debris. 20 microliters of supernatant are reduced 1/10 in extraction buffer and 20 microliters of reduced supernatant are mixed with 10 microliters of reagent 1 (see Björnsson, S., Analytical biochemistry 210, 282-291 (1993)) on a shaking table for 15 minutes. 200 microliters of reagent 2 are added and the tests are incubated for 60 minutes in order to precipitate the proteoglycanes. The proteoglycane/alcian blue precipitate is transferred to 96-wells MillBlotD apparatus and washed with 2×200 microliters of 40% DMSO, 0.05 M of MgCl2. The colour intensity of the wells are quantitated by microtech E3 scanner and Scan Analysis software (Biosoft, Cambridge, U.K.). Chrondroitine-6-sulphate (Sigma C4384) is used as the calibrator. All samples are analyzed in duplicate.
The results of longterm treatment with each of the 8 substances specified above are shown in Example 2 (treatment for 12 weeks) and Example 4 (treatment for 10 weeks).

sclera [3] = assay: Content of collagen specific amino acids in rabbit sclera after long term treatment (HPLC); type: in vivo; details: dried defatted weight, 10 weeks treatment (Example 4)
skeletal RyR = biological target: T1, skeletal RyR (Oryctolagus cuniculus, UniProt P11716); details: cited from earlier work
T1 construct: Structure-activity Relationship of Xanthines and Skeletal Muscle Ryanodine Receptor/Ca^2+ Release Channel; from tissue; host or cells: Skeletal muscle

[4] = posterior sclera, 10 weeks treatment (Example 4)

T1 sequence (P11716 whole entry): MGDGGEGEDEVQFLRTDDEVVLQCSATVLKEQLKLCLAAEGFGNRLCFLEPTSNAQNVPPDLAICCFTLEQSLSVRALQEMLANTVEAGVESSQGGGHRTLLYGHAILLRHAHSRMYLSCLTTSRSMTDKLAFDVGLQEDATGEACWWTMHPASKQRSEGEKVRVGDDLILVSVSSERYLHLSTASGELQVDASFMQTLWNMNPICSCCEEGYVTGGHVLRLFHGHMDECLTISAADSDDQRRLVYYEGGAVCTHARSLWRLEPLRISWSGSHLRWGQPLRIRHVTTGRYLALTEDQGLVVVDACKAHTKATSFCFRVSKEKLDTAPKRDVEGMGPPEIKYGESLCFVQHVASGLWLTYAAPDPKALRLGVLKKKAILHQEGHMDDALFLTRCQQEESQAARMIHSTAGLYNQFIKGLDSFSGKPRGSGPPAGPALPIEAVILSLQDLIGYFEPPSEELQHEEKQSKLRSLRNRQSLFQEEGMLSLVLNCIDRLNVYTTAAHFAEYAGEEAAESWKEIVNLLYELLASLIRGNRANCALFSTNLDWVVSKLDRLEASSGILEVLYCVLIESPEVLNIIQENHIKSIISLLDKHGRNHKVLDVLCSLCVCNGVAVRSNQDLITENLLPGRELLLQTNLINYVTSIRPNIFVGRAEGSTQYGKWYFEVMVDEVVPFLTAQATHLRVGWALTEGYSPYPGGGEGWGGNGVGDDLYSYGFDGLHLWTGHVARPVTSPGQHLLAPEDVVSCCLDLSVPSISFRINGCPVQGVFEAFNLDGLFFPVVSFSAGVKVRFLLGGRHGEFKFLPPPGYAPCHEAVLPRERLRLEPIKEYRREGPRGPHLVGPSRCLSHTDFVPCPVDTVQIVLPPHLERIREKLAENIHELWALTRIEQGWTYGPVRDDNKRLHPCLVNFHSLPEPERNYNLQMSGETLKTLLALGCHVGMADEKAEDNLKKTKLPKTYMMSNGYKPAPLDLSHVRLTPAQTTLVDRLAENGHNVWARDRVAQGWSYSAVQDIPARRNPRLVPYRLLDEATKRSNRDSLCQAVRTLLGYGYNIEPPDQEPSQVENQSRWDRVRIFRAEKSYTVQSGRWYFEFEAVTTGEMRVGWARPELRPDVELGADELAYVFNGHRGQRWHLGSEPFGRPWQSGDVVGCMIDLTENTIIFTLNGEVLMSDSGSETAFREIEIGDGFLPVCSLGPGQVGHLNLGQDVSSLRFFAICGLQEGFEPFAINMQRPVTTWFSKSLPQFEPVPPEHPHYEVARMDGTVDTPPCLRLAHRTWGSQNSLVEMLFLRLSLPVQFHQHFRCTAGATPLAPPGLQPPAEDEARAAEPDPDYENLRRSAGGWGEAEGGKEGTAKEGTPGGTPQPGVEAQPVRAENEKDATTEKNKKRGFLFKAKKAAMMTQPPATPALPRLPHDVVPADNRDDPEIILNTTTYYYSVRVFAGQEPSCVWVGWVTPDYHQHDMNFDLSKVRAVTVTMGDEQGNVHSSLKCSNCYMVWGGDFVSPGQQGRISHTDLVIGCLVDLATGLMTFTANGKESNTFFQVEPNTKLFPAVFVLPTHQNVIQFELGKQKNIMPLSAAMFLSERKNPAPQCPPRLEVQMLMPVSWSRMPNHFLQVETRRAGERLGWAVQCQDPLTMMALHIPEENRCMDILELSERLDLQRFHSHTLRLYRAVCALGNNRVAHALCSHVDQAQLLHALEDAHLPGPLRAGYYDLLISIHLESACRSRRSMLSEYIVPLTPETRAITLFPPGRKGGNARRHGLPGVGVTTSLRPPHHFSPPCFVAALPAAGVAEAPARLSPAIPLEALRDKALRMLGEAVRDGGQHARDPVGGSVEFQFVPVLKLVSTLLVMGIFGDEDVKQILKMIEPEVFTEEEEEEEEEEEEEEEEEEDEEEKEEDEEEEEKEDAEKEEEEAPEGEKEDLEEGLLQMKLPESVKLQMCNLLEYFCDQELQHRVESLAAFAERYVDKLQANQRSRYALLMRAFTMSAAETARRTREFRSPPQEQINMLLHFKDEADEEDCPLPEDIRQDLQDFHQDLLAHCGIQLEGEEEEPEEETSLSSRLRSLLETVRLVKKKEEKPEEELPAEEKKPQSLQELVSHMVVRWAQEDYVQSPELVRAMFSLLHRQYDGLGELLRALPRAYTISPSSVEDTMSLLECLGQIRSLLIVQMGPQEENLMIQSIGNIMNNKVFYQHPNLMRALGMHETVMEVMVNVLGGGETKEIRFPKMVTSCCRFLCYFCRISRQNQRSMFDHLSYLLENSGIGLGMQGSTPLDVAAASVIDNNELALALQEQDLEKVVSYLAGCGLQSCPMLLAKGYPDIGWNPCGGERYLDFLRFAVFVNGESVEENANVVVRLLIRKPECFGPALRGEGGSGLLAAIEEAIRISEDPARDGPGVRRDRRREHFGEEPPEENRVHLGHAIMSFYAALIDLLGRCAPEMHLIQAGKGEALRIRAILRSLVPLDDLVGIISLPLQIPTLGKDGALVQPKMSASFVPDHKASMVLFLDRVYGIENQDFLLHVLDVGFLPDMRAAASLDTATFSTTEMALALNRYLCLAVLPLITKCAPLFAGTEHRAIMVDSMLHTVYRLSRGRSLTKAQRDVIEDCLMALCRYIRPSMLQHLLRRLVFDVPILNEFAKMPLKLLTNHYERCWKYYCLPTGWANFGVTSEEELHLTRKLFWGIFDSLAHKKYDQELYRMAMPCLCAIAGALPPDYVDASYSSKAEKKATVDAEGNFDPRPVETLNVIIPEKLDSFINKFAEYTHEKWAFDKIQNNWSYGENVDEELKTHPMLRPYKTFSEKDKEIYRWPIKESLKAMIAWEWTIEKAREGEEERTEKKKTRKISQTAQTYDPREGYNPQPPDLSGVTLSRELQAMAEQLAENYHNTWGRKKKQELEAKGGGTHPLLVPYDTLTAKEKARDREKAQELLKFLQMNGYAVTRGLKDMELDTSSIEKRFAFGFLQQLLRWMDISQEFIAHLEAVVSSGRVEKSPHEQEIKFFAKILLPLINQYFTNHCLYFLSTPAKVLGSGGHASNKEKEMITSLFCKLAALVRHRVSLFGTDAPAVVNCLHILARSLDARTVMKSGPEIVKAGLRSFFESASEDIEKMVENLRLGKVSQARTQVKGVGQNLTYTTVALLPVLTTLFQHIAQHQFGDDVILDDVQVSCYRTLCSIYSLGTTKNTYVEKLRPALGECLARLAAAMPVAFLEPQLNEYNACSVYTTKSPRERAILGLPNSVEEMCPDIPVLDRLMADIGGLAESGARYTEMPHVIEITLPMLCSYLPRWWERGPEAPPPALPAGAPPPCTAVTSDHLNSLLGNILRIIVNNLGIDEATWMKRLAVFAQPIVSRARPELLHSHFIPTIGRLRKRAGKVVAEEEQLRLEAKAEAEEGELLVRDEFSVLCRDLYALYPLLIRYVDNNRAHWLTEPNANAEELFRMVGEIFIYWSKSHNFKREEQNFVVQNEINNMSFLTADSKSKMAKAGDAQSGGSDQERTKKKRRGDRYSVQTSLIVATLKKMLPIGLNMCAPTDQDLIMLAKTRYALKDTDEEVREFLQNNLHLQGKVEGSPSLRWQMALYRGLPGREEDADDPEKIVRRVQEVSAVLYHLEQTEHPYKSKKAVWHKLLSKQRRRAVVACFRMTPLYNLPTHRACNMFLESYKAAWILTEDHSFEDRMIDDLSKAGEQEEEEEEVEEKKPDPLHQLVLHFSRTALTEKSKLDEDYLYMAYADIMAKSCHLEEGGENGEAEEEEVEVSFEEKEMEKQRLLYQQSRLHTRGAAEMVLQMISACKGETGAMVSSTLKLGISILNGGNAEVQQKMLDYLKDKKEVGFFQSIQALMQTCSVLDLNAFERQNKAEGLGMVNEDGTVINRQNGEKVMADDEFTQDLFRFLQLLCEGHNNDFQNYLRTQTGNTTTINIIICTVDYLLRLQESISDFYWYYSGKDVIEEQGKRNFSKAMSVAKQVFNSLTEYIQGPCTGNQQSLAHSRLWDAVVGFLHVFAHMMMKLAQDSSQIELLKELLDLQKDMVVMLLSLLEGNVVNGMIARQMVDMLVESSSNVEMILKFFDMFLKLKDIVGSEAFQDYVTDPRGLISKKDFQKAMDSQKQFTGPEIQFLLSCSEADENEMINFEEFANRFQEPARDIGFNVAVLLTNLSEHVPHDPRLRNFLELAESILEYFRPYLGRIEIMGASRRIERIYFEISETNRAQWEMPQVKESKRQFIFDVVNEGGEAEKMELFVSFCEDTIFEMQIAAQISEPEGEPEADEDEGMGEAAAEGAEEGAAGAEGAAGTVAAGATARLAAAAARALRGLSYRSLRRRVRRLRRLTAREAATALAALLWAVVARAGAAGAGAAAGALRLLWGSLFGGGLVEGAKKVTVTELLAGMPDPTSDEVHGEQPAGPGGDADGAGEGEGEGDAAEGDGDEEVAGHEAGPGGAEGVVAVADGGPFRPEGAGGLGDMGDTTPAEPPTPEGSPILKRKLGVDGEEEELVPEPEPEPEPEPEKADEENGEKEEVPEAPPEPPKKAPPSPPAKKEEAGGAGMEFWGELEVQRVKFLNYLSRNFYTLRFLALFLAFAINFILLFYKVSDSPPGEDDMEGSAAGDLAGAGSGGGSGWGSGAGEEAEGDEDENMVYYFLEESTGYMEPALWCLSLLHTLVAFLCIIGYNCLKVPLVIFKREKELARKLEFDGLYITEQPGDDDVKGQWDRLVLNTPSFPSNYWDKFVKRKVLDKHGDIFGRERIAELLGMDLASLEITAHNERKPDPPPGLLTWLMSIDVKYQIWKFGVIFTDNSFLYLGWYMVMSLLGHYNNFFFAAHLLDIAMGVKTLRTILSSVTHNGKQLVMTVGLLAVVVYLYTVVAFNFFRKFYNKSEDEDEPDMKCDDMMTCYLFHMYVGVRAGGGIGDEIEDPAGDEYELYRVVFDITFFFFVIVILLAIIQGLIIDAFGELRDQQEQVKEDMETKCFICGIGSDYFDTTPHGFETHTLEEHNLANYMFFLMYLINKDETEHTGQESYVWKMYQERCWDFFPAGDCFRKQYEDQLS

Compound	Hydroxylysine Decr. compared to the control (sclera [1]; anterior sclera)	Hydroxylysine content (sclera [1]; anterior sclera)	Hydroxyproline content (sclera [1]; anterior sclera)	Proline content (sclera [1]; anterior sclera)	Hydroxyproline Inc. compared to the control (sclera [1]; posterior sclera)	Proline Inc. compared to the control (sclera [1]; posterior sclera)	Hydroxylysine content (sclera [1]; posterior sclera)	Hydroxyproline content (sclera [1]; posterior sclera)	Proline content (sclera [1]; posterior sclera)	Proteoglycanes Decrease compared to the control, anterior sclera (sclera [2]; 3 months treatment)	Content of proteoglycanes, anterior sclera (sclera [2]; 3 months treatment)	Content of proteoglycanes, posterior sclera (sclera [2]; 3 months treatment)	Hydroxylysine content (sclera [3]; anterior sclera)	Hydroxyproline content (sclera [3]; anterior sclera)	Proline content (sclera [3]; anterior sclera)	Hydroxylysine content (sclera [3]; posterior sclera)	Hydroxyproline content (sclera [3]; posterior sclera)	Proline content (sclera [3]; posterior sclera)	Content of proteoglycanes, anterior sclera (sclera [2]; 10 weeks treatment (Example 4))	Content of proteoglycanes, posterior sclera (sclera [2]; 10 weeks treatment (Example 4))	also measured
CNCCC(Oc1ccc(C(F)(F)F)cc1)c1ccccc1 (stereo not drawn) [Fluoxetine, fluoxetine]	20%	33 +/− 11 nanomol/mg tissue	619 +/− 40 nanomol/mg tissue	896 +/− 21 nanomol/mg tissue	17%	15%	41 +/− 13 nanomol/mg tissue	640 +/− 31 nanomol/mg tissue	927 +/− 15 nanomol/mg tissue	19%	2.2 +/− 0.4* μg PG/mg tissue	2.6 +/− 0.2 μg PG/mg tissue	–	–	–	–	–	–	–	–	–
CC(=O)Nc1nnc(S(N)(=O)=O)s1 [Acetazolamide, acetazolamide]	–	–	–	–	–	–	–	–	–	–	–	–	41 +/− 4 nanomol/mg tissue	596 +/− 27* nanomol/mg tissue	843 +/− 47* nanomol/mg tissue	38 +/− 6 nanomol/mg tissue	563 +/− 91 nanomol/mg tissue	781 +/− 125 nanomol/mg tissue	2.9 +/− 0.4 μg PG/mg tissue	2.8 +/− 0.8 μg PG/mg tissue	content of hydroxyproline and proline in anterior sclera (in words) (sclera [1]; Example 4, versus control, significantly): reduced; Hydroxylysine Decr. (sclera [1]; [4]): 7%; Hydroxyproline Decr. (sclera [1]; [4]): 10%; Proline Decr. (sclera [1]; [4]): 10%
N[C@@H](CSSC[C@H](N)C(=O)O)C(=O)O [L-cystine]	–	45 +/− 10 nanomol/mg tissue	599 +/− 41 nanomol/mg tissue	885 +/− 22 nanomol/mg tissue	9%	7%	43 +/− 8 nanomol/mg tissue	596 +/− 39 nanomol/mg tissue	867 +/− 14 nanomol/mg tissue	–	3.5 +/− 0.5* μg PG/mg tissue	3.5 +/− 0.4* μg PG/mg tissue	–	–	–	–	–	–	–	–	Proteoglycanes Increase compared to the control, anterior sclera (sclera [2]; 3 months treatment): 29%; Proteoglycanes Increase compared to the control, posterior sclera (sclera [2]; 3 months treatment): 29%
Cn1c(=O)c2[nH]cnc2n(C)c1=O.Cn1c(=O)c2[nH]cnc2n(C)c1=O.NCCN [Teofylamin]	32%	28 +/− 10 nanomol/mg tissue	653 +/− 39 nanomol/mg tissue	958 +/− 23 nanomol/mg tissue	18%	11%	28 +/− 15 nanomol/mg tissue	643 +/− 74 nanomol/mg tissue	902 +/− 53 nanomol/mg tissue	11%	2.4 +/− 0.5 μg PG/mg tissue	2.7 +/− 0.3 μg PG/mg tissue	–	–	–	–	–	–	–	–	Hydroxyproline Inc. compared to the control (sclera [1]; anterior sclera): 8%; Proline Inc. compared to the control (sclera [1]; anterior sclera): 8%; Hydroxylysine Decr. compared to the control (sclera [1]; posterior sclera): 35%
Cn1cnc2c1c(=O)[nH]c(=O)n2C [Theobromine, 3,7-Dimethylxanthine]	–	–	–	–	–	–	–	–	–	–	–	–	49 +/− 6 nanomol/mg tissue	751 +/− 53* nanomol/mg tissue	1073 +/− 78* nanomol/mg tissue	49 +/− 4* nanomol/mg tissue	741 +/− 18* nanomol/mg tissue	1029 +/− 45* nanomol/mg tissue	2.6 +/− 0.7 μg PG/mg tissue	2.5 +/− 0.4 μg PG/mg tissue	content of all collagen specific amino acids, except hydroxylysine in anterior sclera (in words) (sclera [1]; all sclera samples, Example 4, versus control): Significant higher content; Hydroxylysine Inc. (sclera [1]; [4]): 20%; Hydroxyproline Inc. (sclera [1]; [4]): 19%; Proline Inc. (sclera [1]; [4]): 20%; Proteoglycanes Decrease, anterior sclera (sclera [2]; 10 weeks treatment (Example 4)): 10%; Proteoglycanes Decrease, posterior sclera (sclera [2]; 10 weeks treatment (Example 4)): 14%; content of proteoglycans in posterior sclera (in words) (sclera [2]; Example 4, versus control): decrease; Effect on proteoglycan content of posterior sclera in % compared to control (sclera [2]; rabbit, Examples 2 and 4): 86%; Effect on [3H ryanodine binding in % compared to control (skeletal RyR; values of Table 3 without AMP/AMPPCP, caffeine represented by 1,7-dimethylxanthine): 124%; Bound [3H]ryanodine % of control (skeletal RyR; xanthine […], 1 mmol/l AMPPCP, control (-xanthine) = 100): 160 ± 22 % of control; Bound [3H]ryanodine pmol/mg protein (skeletal RyR; xanthine […], 1 mmol/l AMPPCP, means±SD of 3-4 experiments): 2.70 ± 0.37 pmol/mg protein; Bound [3H]ryanodine, % of control, +1 mmol/l AMPPCP (skeletal RyR; xanthine […], +1 mmol/l AMPPCP, control (-xanthine) = 100): 160 ± 22 % of control; Bound [3H]ryanodine, % of control, +3 mmol/l AMP (skeletal RyR; xanthine […], +3 mmol/l AMP, control (-xanthine) = 100): 136 ± 8 % of control
NCCC[C@H](N)C(=O)O [L-ornithine]	–	–	–	–	–	–	–	–	–	–	–	–	37 +/− 4 nanomol/mg tissue	605 +/− 37 nanomol/mg tissue	875 +/− 48 nanomol/mg tissue	38 +/− 5 nanomol/mg tissue	611 +/− 24 nanomol/mg tissue	871 +/− 35 nanomol/mg tissue	3.0 +/− 1.1 μg PG/mg tissue	3.0 +/− 0.9 μg PG/mg tissue	Hydroxylysine Decr. (sclera [1]; [4]): 7%
